Laboratory results taken from the supplement of paper PMC10307832.

Key:
Test in all cases: relative viability (nuclei count vs DMSO), 5 days (fraction); higher = more cells survive
[1] = compound: CCn1c(-c2nonc2N)nc2c(C#CC(C)(C)O)ncc(OC[C@H]3CCCNC3)c21 + CS(=O)(=O)CCNCc1ccc(-c2ccc3ncnc(Nc4ccc(OCc5cccc(F)c5)c(Cl)c4)c3c2)o1 [Lapatinib] (partner 2 µM)
Procedure, shortened: (§1)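 Lung cancer cell lines in 1536-well plates were dosed by pin tool the day after seeding, either with one drug alone or with a fixed anchor-drug dose plus five library-drug doses (not always all listed) in √10 steps. After 5 days, cells were fixed and their nuclei stained in one step (final 0.05% Triton X-100, 1% formaldehyde, 1 ug/ml Hoechst), then counted on 4× images. Relative viability is the nuclei count in treated wells divided by that in vehicle wells. Values are medians of duplicate plates.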

[2] = compound: CCOC1=CC=CC=C1N=NC2=C(NN(C2=O)C3=NC(=CS3)C4=CC=CC=C4)C [BAM7] + CC(C)C[C@H](NC(=O)[C@H](Cc1ccccc1)NC(=O)c1cnccn1)B(O)O [Bortezomib] (partner 0.002 µM)
Procedure, shortened: as §1

[3] = compound: CCOC1=CC=CC=C1N=NC2=C(NN(C2=O)C3=NC(=CS3)C4=CC=CC=C4)C [BAM7] + CCNC(=O)c1noc(-c2cc(C(C)C)c(O)cc2O)c1-c1ccc(CN2CCOCC2)cc1 [Luminespib] (partner 0.01 µM)
Procedure, shortened: as §1

[4] = compound: CCOC1=CC=CC=C1N=NC2=C(NN(C2=O)C3=NC(=CS3)C4=CC=CC=C4)C [BAM7] + Cc1nc(Nc2ncc(C(=O)Nc3c(C)cccc3Cl)s2)cc(N2CCN(CCO)CC2)n1 [Dasatinib] (partner 0.075 µM)
Procedure, shortened: as §1

In the case of UMC-11, the relative viability ([1]; first compound 0.01 µM) is reported as 1.08, the relative viability ([1]; first compound 0.03162 µM) is reported as 0.987 and the relative viability ([1]; first compound 0.1 µM) is reported as 0.952. It also gave a relative viability ([1]; first compound 0.3162 µM) of 0.818, a relative viability ([1]; first compound 1 µM) of 1.08 and a relative viability ([2]; first compound 0.5 µM) of 0.78. It also gave a relative viability ([2]; first compound 5 µM) of 0.89, a relative viability ([2]; first compound 15.81 µM) of 0.67 and a relative viability ([2]; first compound 50 µM) of 0.905. It also gave a relative viability ([3]; first compound 0.5 µM) of 1.07, a relative viability ([3]; first compound 5 µM) of 1.11 and a relative viability ([3]; first compound 15.81 µM) of 1.1. The relative viability ([3]; first compound 50 µM) was 0.991, the relative viability ([4]; first compound 0.5 µM) was 0.511 and the relative viability ([4]; first compound 5 µM) was 0.509. It also gave a relative viability ([4]; first compound 15.81 µM) of 0.449 and a relative viability ([4]; first compound 50 µM) of 0.479.
